Data as given in patent publication US8552002B2 (Novartis AG, priority 2004, dated 2013).
Counter-ions that a name gives are not always drawn.

Legend:
Assay type in all cases: biochemical
Tek = biological target: T1, Tek (Homo sapiens, UniProt Q02763); assay: Recombinant GST-Tek (Tie-2) tyrosine kinase assay (33P into poly(Glu,Tyr)); settings: Examples 1 to 169
T1 construct: amino acids 773-1124 of the cytoplasmic kinase domain of human Tek, N-terminally fused to GST; made in house; host or cells: Sf9 insect cells (baculovirus)
How it was run: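 Read-out is filter-bound 33P in poly(Glu,Tyr) 4:1 (10 μg/mL) after 30 min at ambient temperature with 4.0 μM ATP. Enzyme: 150 ng human GST-Tek (aa 773-1124) from insect cells, in Tris pH 7.5 with Mn2+/Mg2+ and vanadate. IC50 fitted linearly over four concentrations, usually 0.01-10 μM.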

KDR = biological target: T2, KDR (Homo sapiens, UniProt P35968); assay: Inhibitory activity against KDR (VEGF-R2), in vitro data of Examples 170 and 207; settings: 10 μM; Examples 1 to 169; read-out: KDR inhibition at 10 μM
T2 construct: expressed in transfected cells; host or cells: CHO cells
How it was run: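 KDR tyrosine phosphorylation detected by luminescence after overnight 4° C capture of 20 μg lysate protein with PY20:AP antibody. Lysates came from cells given compound for 2 h at 37° C, then final 20 ng/ml VEGF for 5 min; compound-free medium as control.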

FGFR3 (K650E) = biological target: T3, FGFR3 (K650E) (Homo sapiens, UniProt P22607, K650E); assay: Recombinant GST-FGFR-3-K650E tyrosine kinase assay (33P into poly(Glu,Tyr)); settings: 10 μM; Examples 1 to 169; read-out: FGFR3 (K650E) inhibition at 10 μM
T3 construct: amino acids 411-806 of the cytoplasmic domain of human FGFR-3, N-terminally fused to GST; made in house; host or cells: Sf9 insect cells (baculovirus)
T3 sequence (P22607 411-806 K650E): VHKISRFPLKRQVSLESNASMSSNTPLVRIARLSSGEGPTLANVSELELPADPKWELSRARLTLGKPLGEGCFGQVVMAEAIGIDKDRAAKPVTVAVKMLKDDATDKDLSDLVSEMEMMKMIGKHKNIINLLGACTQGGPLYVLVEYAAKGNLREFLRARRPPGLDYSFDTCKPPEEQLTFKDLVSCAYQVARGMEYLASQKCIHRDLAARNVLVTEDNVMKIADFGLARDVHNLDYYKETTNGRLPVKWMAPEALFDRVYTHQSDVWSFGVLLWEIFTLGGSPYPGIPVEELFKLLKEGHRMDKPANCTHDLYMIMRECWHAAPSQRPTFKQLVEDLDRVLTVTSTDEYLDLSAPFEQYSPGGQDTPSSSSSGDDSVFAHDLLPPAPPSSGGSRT

T2 sequence (P35968 20-1356): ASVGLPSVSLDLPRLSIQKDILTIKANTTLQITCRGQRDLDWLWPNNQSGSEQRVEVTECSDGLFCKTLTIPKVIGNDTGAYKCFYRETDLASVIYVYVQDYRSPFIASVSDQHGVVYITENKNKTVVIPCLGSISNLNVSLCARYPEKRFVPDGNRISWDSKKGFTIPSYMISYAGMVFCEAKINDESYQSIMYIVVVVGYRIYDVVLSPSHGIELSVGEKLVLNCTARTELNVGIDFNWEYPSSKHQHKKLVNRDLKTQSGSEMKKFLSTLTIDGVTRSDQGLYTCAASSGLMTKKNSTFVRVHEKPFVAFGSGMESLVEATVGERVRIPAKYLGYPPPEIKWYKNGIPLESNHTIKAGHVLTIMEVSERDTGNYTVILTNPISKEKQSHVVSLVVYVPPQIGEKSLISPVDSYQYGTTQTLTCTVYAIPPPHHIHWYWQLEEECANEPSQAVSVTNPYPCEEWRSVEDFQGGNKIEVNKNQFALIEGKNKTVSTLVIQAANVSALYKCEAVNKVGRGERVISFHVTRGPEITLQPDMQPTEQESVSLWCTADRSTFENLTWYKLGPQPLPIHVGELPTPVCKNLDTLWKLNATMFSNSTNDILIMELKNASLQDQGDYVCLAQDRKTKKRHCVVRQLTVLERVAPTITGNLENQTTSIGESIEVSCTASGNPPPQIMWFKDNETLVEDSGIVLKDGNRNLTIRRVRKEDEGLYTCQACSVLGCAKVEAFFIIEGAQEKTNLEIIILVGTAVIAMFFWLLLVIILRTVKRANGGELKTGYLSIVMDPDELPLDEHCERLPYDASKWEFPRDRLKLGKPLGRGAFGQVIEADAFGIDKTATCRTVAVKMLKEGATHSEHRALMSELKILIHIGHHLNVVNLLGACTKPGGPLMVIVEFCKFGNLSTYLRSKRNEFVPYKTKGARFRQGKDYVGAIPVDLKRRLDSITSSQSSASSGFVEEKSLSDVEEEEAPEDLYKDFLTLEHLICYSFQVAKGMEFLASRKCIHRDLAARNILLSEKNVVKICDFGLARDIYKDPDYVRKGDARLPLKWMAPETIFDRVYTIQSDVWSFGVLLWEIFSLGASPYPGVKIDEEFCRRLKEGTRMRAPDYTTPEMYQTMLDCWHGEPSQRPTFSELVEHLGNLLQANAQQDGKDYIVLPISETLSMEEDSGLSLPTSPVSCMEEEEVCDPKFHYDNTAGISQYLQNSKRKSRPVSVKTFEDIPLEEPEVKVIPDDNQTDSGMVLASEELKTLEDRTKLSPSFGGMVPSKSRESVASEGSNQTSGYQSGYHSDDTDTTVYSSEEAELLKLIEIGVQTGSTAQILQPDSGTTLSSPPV
T1 sequence (Q02763 773-1124): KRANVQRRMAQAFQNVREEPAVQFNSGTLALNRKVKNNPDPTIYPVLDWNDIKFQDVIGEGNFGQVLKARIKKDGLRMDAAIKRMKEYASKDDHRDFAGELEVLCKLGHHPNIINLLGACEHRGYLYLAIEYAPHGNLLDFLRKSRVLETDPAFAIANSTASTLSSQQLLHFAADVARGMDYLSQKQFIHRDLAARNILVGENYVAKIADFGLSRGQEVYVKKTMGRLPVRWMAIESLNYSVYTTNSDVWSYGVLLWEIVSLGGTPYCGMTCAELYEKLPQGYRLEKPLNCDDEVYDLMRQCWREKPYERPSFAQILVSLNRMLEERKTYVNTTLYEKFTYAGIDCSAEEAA

inhibition at 10 µM (Tek) [%]	inhibition at 10 µM (KDR) [%]	inhibition at 10 µM (FGFR3 (K650E)) [%]	SMILES
12 to 100	67 to 100	27 to 100	COc1cc(NC(=O)N(C)c2cc(Nc3cccc(N4CCN(C)CC4)c3)ncn2)cc(OC)c1 [Example 48, 3-(3,5-Dimethoxy-phenyl)-1-methyl-1-{6-[3-(4-methyl-piperazin-1-yl)-phenylamino]-pyrimidin-4-yl}-urea]
12 to 100	67 to 100	27 to 100	COc1ccc(C)c(NC(=O)Nc2cc(Nc3cccc(Cl)c3)ncn2)c1 [Example 134, 1-[6-(3-Chloro-phenylamino)-pyrimidin-4-yl]-3-(5-methoxy-2-methyl-phenyl)-urea]
12 to 100	67 to 100	27 to 100	COc1cc(OC)c(Cl)c(NC(=O)Nc2cc(Nc3ccc(OCCN4CCN(C)CC4)cc3)ncn2)c1Cl [Example 158, 1-(2,6-Dichloro-3,5-dimethoxy-phenyl)-3-(6-{4-[2-(4-methyl-piperazin-1-yl)-ethoxy]-phenylamino}-pyrimidin-4-yl)-urea]
12 to 100	67 to 100	27 to 100	COc1cccc(NC(=O)Nc2cc(Nc3cccc(N4CCN(C)CC4)c3)ncn2)c1 [Example 9, 1-(3-Methoxy-phenyl)-3-{6-[3-(4-methyl-piperazin-1-yl)-phenylamino]-py-rimidin-4-yl}-urea]
12 to 100	67 to 100	27 to 100	Cc1cccc(Cl)c1NC(=O)Nc1cc(Nc2ccc(N3CCN(C)CC3)cc2)ncn1 [Example 6, 1-(2-Chloro-6-methyl-Phenyl)-3-{6-[4-(4-methyl-piperazin-1-yl)-phenyl-amino]-pyrimidin-4-yl}-urea]
12 to 100	67 to 100	27 to 100	COc1cc(OC)c(Cl)c(NC(=O)Nc2cc(Nc3ccc(OCCN4CCCC4)cc3)ncn2)c1Cl [Example 155, 1-(2,6-Dichloro-3,5-dimethoxy-phenyl)-3-{6-[4-(2-pyrrolidin-1-yl-ethoxy)-phenylamino]-pyrimidin-4-yl}-urea]
12 to 100	67 to 100	27 to 100	CN(C(=O)Nc1c(Cl)cccc1Cl)c1cc(Nc2ccc(N3CCOCC3)cc2)ncn1 [Example 117, 3-(2,6-Dichloro-phenyl)-1-methyl-1-[6-(4-morpholin-4-yl-phenylamino)-pyrimidin-4-yl]-urea]
12 to 100	67 to 100	27 to 100	CN(C)c1cccc(Nc2cc(NC(=O)Nc3c(F)cccc3F)ncn2)c1 [Example 106, 1-(2,6-Difluoro-phenyl)-3-[6-(3-dimethylamino-phenylamino)-pyrimidin-4-yl]-urea]
12 to 100	67 to 100	27 to 100	Cc1cccc(C)c1NC(=O)N(C)c1cc(Nc2cccc(Cl)c2)ncn1 [Example 127, 1-[6-(3-Chloro-phenylamino)-pyrimidin-4-yl]-3-(2,6-dimethyl-phenyl)-1-methyl-urea]
12 to 100	67 to 100	27 to 100	CCN(C(=O)Nc1c(Cl)c(OC)cc(OC)c1Cl)c1cc(Nc2ccc(OC3CCN(C)CC3)cc2)ncn1 [Example 166, 3-(2,6-Dichloro-3,5-dimethoxy-phenyl)-1-ethyl-{6-[4-(1-methyl-piperidin-4-yloxy)-phenylamino]-pyrimidin-4-yl}-urea]

More lines, now with the values behind:

SMILES	inhibition at 10 µM (Tek) [%]	inhibition at 10 µM (KDR) [%]	inhibition at 10 µM (FGFR3 (K650E)) [%]
O=C(Nc1cc(Nc2ccc(OCCCN3CCOCC3)cc2)ncn1)Nc1ccccc1Cl [Example 125, 1-(2-Chloro-Phenyl)-3-{6-[4-(3-morpholin-4-yl-propoxy)-phenylamino]-pyrimidin-4-yl}-urea bis-hydrochloride Salt]	12 to 100	67 to 100	27 to 100
COc1ccc(NC(=O)N(C)c2cc(Nc3ccc(F)cc3)ncn2)cc1 [Example 116, 1-[6-(4-Fluoro-Phenylamino)-pyrimidin-4-yl]-3-(4-methoxy-phenyl)-1-methyl-urea]	12 to 100	67 to 100	27 to 100
COc1cc(NC(=O)N(Cc2cccs2)c2cc(Nc3ccc(N4CCN(C)CC4)cc3)ncn2)c(Cl)c(OC)c1 [Example 56, 3-(2-Chloro-3,5-dimethoxy-phenyl)-1-{6-[4-(4-methyl-piperazin-1-yl)-phenylamino]-pyrimidin-4-yl}-1-thiophen-2-ylmethyl-urea]	12 to 100	67 to 100	27 to 100
O=C(Nc1cc(Nc2cccc(Cl)c2)ncn1)Nc1ccccc1C(F)(F)F [Example 133, 1-[6-(3-Chloro-phenylamino)-pyrimidin-4-yl]-3-(2-trifluoromethyl-phenyl)-urea]	12 to 100	67 to 100	27 to 100
COc1ccc(OC)c(NC(=O)Nc2cc(Nc3cccc(N4CCN(C)CC4)c3)ncn2)c1 [Example 13, 1-(2,5-Dimethoxy-phenyl)-3-{6-[3-(4-methyl-piperazin-1-yl)-phenyl-amino]-pyrimidin-4-yl}-urea]	12 to 100	67 to 100	27 to 100
COc1cc(NC(=O)N(C)c2cc(Nc3ccccc3)ncn2)c(Cl)c(OC)c1 [Example 49, 3-(2-Chloro-3,5-dimethoxy-phenyl)-1-methyl-1-(6-phenylamino-pyrimidin-4-yl)-urea]	12 to 100	67 to 100	27 to 100
CCN(CC)CCCOc1ccc(Nc2cc(NC(=O)Nc3c(Cl)cccc3Cl)ncn2)cc1 [Example 103, 1-(2,6-Dichloro-phenyl)-3-{6-[4-(3-diethylamino-propoxy)-phenylamino]-pyrimidin-4-yl}-urea]	12 to 100	67 to 100	27 to 100
COc1cc(NC(=O)Nc2cc(Nc3cccc(OCCN4CCOCC4)c3)ncn2)c(Cl)c(OC)c1 [Example 45, 1-(2-Chloro-3,5-dimethoxy-phenyl)-3-{6-[3-(2-morpholin-4-yl-ethoxy)-phenylamino]-pyrimidin-4-yl}-urea]	12 to 100	67 to 100	27 to 100
COc1cc(NC(=O)N(C)c2cc(Nc3cccc(OCCN(C)C)c3)ncn2)c(Cl)c(OC)c1 [Example 54, 3-(2-Chloro-3,5-dimethoxy-phenyl)-1-{6-[3-(2-dimethylamino-ethoxy)-phenylamino]-pyrimidin-4-yl}-1-methyl-urea]	12 to 100	67 to 100	27 to 100
COc1cc(OC)c(Cl)c(NC(=O)N(C)c2cc(Nc3ccc(CN(C)C)c(C(F)(F)F)c3)ncn2)c1Cl [Example 167, 3-(2,6-Dichloro-3,5-dimethoxy-phenyl)-1-[6-(4-dimethylaminomethyl-3-trifluoromethyl-phenylamino)-pyrimidin-4-yl]-1-methyl-urea]	12 to 100	67 to 100	27 to 100
Cc1cc(C)cc(NC(=O)Nc2cc(Nc3ccc(N4CCN(C)CC4)cc3)ncn2)c1 [Example 22, 1-(3,5-Dimethyl-phenyl)-3-{6-[4-(4-methyl-piperazin-1-yl)-phenyl-amino]-pyrimidin-4-yl}-urea]	12 to 100	67 to 100	27 to 100
CCN(C(=O)Nc1c(Cl)ccc(OC)c1Cl)c1cc(Nc2ccc(N3CCN(C)CC3)cc2)ncn1 [Example 59, 3-(2,6-Dichloro-3-methoxy-phenyl)-1-ethyl-1-{6-[4-(4-methyl-piperazin-1-yl)-phenylamino]-pyrimidin-4-yl}-urea]	12 to 100	67 to 100	27 to 100
CN1CCN(c2cccc(Nc3cc(NC(=O)Nc4cc(Cl)cc(Cl)c4)ncn3)c2)CC1 [Example 11, 1-(3,5-Dichloro-phenyl)-3-{6-[3-(4-methyl-piperazin-1-yl)-phenylamino]-pyrimidin-4-yl}-urea]	12 to 100	67 to 100	27 to 100
CN(C(=O)Nc1c(Cl)cccc1Cl)c1cc(Nc2cccc(C#N)c2)ncn1 [Example 114, 1-[6-(3-Cyano-phenylamino)-pyrimidin-4-yl]-3-(2,6-dichloro-phenyl)-1-methyl-urea]	12 to 100	67 to 100	27 to 100
COc1ccc(C)c(NC(=O)Nc2cc(Nc3cccc(N4CCN(C)CC4)c3)ncn2)c1 [Example 27, 1-(5-Methoxy-2-methyl-phenyl)-3-{6-[3-(4-methyl-piperazin-1-yl)-phenyl-amino]-pyrimidin-4-yl}-urea]	12 to 100	67 to 100	27 to 100
COc1cc(OC)c(Cl)c(NC(=O)N(C)c2cc(Nc3cccc(CN(C)CCN(C)C)c3)ncn2)c1Cl [Example 162, 3-(2,6-Dichloro-3,5-dimethoxy-phenyl)-1-[6-(3-{[(2-dimethylamino-ethyl)-methyl-amino]-methyl}-phenylamino)-pyrimidin-4-yl]-1-methyl-urea]	12 to 100	67 to 100	27 to 100
